Measurements taken from ChEMBL document CHEMBL1138895, “Synthesis and antibacterial activity of nocathiacin I analogues” (Bioorg Med Chem Lett, 2006).
≈ marks a conversion by molar mass, not a printed value.

What was measured:
[1] = Solubility at pH 8.7; assay type: physicochemical; conditions: buffer
Staphylococcus aureus = assay: Antibacterial activity against methicillin-sensitive Staphylococcus aureus A15090; assay type: functional
Enterococcus faecalis = assay: Antibacterial activity against […] A20688; assay type: functional
Streptococcus pneumoniae = assay: Antibacterial activity against penicillin resistant Streptococcus pneumoniae A28272; assay type: functional
Mus musculus = species on record: Mus musculus; assay: Activity against Staphylococcus aureus A15090 infected ICR mouse after 8 days; assay type: functional; conditions: 192 h, read-out: PD50
[2] = Solubility at pH 3.5; assay type: physicochemical; conditions: buffer
[3] = Solubility at pH 2.8; assay type: physicochemical; conditions: buffer
[4] = Solubility at pH 8.4; assay type: physicochemical; conditions: buffer
[5] = Solubility at pH 3.3; assay type: physicochemical; conditions: buffer
[6] = Solubility at pH 3.8; assay type: physicochemical; conditions: buffer
[7] = Solubility at pH 8.1; assay type: physicochemical; conditions: buffer
[8] = Solubility at pH 3.4; assay type: physicochemical; conditions: buffer
[9] = Solubility at pH 4.0; assay type: physicochemical; conditions: buffer
[10] = Solubility at pH 3.1; assay type: physicochemical; conditions: buffer

Structure (SMILES): CO/C(C)=C1/NC(=O)[C@H]([C@@H](C)O)NC(=O)c2csc(n2)-c2cc(O)c(-c3nc(C(=O)N[C@@H](C)C(=O)NCCc4ccc(S(=O)(=O)O)cc4)cs3)nc2-c2csc(n2)[C@@H]2COC(=O)c3c4c5c(cccc5n3O)COC(=O)[C@@H](O[C@H]3C[C@](C)(O)[C@H](N(C)C)[C@H](C)O3)[C@@H](OC4)[C@H](NC(=O)c3csc1n3)c1nc(cs1)C(=O)N2
- solubility [1]: > 1200 µg/mL
- MIC (Staphylococcus aureus): 0.5 µg/mL (≈ 0.308 µM)
- MIC (Enterococcus faecalis): 1 µg/mL (≈ 0.616 µM)
- MIC (Streptococcus pneumoniae): 0.125 µg/mL (≈ 0.077 µM)
- ED50 (Mus musculus): > 10 mg/kg

Structure (SMILES): CO/C(C)=C1/NC(=O)[C@H]([C@@H](C)O)NC(=O)c2csc(n2)-c2cc(O)c(-c3nc(C(=O)N[C@@H](C)C(=O)NCCN(C)C)cs3)nc2-c2csc(n2)[C@@H]2COC(=O)c3c4c5c(cccc5n3O)COC(=O)[C@@H](O[C@H]3C[C@](C)(O)[C@H](N(C)C)[C@H](C)O3)[C@@H](OC4)[C@H](NC(=O)c3csc1n3)c1nc(cs1)C(=O)N2
- MIC (Staphylococcus aureus): 0.125 µg/mL (≈ 0.0827 µM)
- solubility [2]: > 2400 µg/mL
- MIC (Enterococcus faecalis): 0.25 µg/mL (≈ 0.165 µM)
- MIC (Streptococcus pneumoniae): 0.125 µg/mL (≈ 0.0827 µM)

Structure (SMILES): CO/C(C)=C1/NC(=O)[C@H]([C@@H](C)O)NC(=O)c2csc(n2)-c2cc(O)c(-c3nc(C(=O)N[C@@H](C)C(=O)NCCCO)cs3)nc2-c2csc(n2)[C@@H]2COC(=O)c3c4c5c(cccc5n3O)COC(=O)[C@@H](O[C@H]3C[C@](C)(O)[C@H](N(C)C)[C@H](C)O3)[C@@H](OC4)[C@H](NC(=O)c3csc1n3)c1nc(cs1)C(=O)N2
- MIC (Staphylococcus aureus): 0.06 µg/mL (≈ 0.0401 µM)
- MIC (Enterococcus faecalis): 0.03 µg/mL (≈ 0.02 µM)
- solubility [3]: 2700 µg/mL (≈ 1800 µM)
- MIC (Streptococcus pneumoniae): 0.007 µg/mL (≈ 0.00467 µM)
- ED50 (Mus musculus): 1.25 mg/kg

Structure (SMILES): CO/C(C)=C1/NC(=O)[C@H]([C@@H](C)O)NC(=O)c2csc(n2)-c2cc(O)c(-c3nc(C(=O)N[C@@H](C)C(=O)NCCS(=O)(=O)O)cs3)nc2-c2csc(n2)[C@@H]2COC(=O)c3c4c5c(cccc5n3O)COC(=O)[C@@H](O[C@H]3C[C@](C)(O)[C@H](N(C)C)[C@H](C)O3)[C@@H](OC4)[C@H](NC(=O)c3csc1n3)c1nc(cs1)C(=O)N2
- MIC (Staphylococcus aureus): 0.25 µg/mL (≈ 0.162 µM)
- MIC (Enterococcus faecalis): 0.25 µg/mL (≈ 0.162 µM)
- solubility [4]: > 2100 µg/mL
- MIC (Streptococcus pneumoniae): 0.03 µg/mL (≈ 0.0194 µM)
- ED50 (Mus musculus): > 10 mg/kg

Structure (SMILES): CO/C(C)=C1/NC(=O)[C@H]([C@@H](C)O)NC(=O)c2csc(n2)-c2cc(O)c(-c3nc(C(=O)N[C@@H](C)C(=O)N4CCC(P(=O)(OC)OC)CC4)cs3)nc2-c2csc(n2)[C@@H]2COC(=O)c3c4c5c(cccc5n3O)COC(=O)[C@@H](O[C@H]3C[C@](C)(O)[C@H](N(C)C)[C@H](C)O3)[C@@H](OC4)[C@H](NC(=O)c3csc1n3)c1nc(cs1)C(=O)N2
- MIC (Staphylococcus aureus): 0.015 µg/mL (≈ 0.00928 µM)
- MIC (Enterococcus faecalis): 0.03 µg/mL (≈ 0.0186 µM)
- solubility [5]: > 3000 µg/mL
- MIC (Streptococcus pneumoniae): 0.015 µg/mL (≈ 0.00928 µM)

Structure (SMILES): CO/C(C)=C1/NC(=O)[C@H]([C@@H](C)O)NC(=O)c2csc(n2)-c2cc(O)c(-c3nc(C(=O)N[C@@H](C)C(=O)NCCCOC4O[C@H](CO)[C@@H](O)[C@H](O)[C@H]4O)cs3)nc2-c2csc(n2)[C@@H]2COC(=O)c3c4c5c(cccc5n3O)COC(=O)[C@@H](O[C@H]3C[C@](C)(O)[C@H](N(C)C)[C@H](C)O3)[C@@H](OC4)[C@H](NC(=O)c3csc1n3)c1nc(cs1)C(=O)N2 (stereo not given in full)
- MIC (Staphylococcus aureus): 4 µg/mL (≈ 2.41 µM)
- MIC (Enterococcus faecalis): 8 µg/mL (≈ 4.82 µM)
- solubility [3]: > 2000 µg/mL
- MIC (Streptococcus pneumoniae): 1 µg/mL (≈ 0.602 µM)

Structure (SMILES): CO/C(C)=C1/NC(=O)[C@H]([C@@H](C)O)NC(=O)c2csc(n2)-c2cc(O)c(-c3nc(C(=O)N[C@@H](C)C(=O)NCCCN4CCCC4)cs3)nc2-c2csc(n2)[C@@H]2COC(=O)c3c4c5c(cccc5n3O)COC(=O)[C@@H](O[C@H]3C[C@](C)(O)[C@H](N(C)C)[C@H](C)O3)[C@@H](OC4)[C@H](NC(=O)c3csc1n3)c1nc(cs1)C(=O)N2
- MIC (Staphylococcus aureus): 0.25 µg/mL (≈ 0.161 µM)
- MIC (Enterococcus faecalis): 0.5 µg/mL (≈ 0.322 µM)
- solubility [5]: > 2600 µg/mL
- MIC (Streptococcus pneumoniae): 0.25 µg/mL (≈ 0.161 µM)

Structure (SMILES): CO/C(C)=C1/NC(=O)[C@H]([C@@H](C)O)NC(=O)c2csc(n2)-c2cc(O)c(-c3nc(C(=O)N[C@@H](C)C(=O)NCc4cc(O)cc(O)c4)cs3)nc2-c2csc(n2)[C@@H]2COC(=O)c3c4c5c(cccc5n3O)COC(=O)[C@@H](O[C@H]3C[C@](C)(O)[C@H](N(C)C)[C@H](C)O3)[C@@H](OC4)[C@H](NC(=O)c3csc1n3)c1nc(cs1)C(=O)N2
- MIC (Staphylococcus aureus): 1 µg/mL (≈ 0.64 µM)
- MIC (Enterococcus faecalis): 2 µg/mL (≈ 1.28 µM)
- solubility [6]: < 0.3 µg/mL
- MIC (Streptococcus pneumoniae): 0.25 µg/mL (≈ 0.16 µM)

Structure (SMILES): CO/C(C)=C1/NC(=O)[C@H]([C@@H](C)O)NC(=O)c2csc(n2)-c2cc(O)c(-c3nc(C(=O)N[C@@H](C)C(=O)NCCCP(=O)([O-])O)cs3)nc2-c2csc(n2)[C@@H]2COC(=O)c3c4c5c(cccc5n3O)COC(=O)[C@@H](O[C@H]3C[C@](C)(O)[C@H](N(C)C)[C@H](C)O3)[C@@H](OC4)[C@H](NC(=O)c3csc1n3)c1nc(cs1)C(=O)N2.[Na+]
- MIC (Staphylococcus aureus): 8 µg/mL
- solubility [7]: > 1700 µg/mL
- MIC (Enterococcus faecalis): 32 µg/mL
- MIC (Streptococcus pneumoniae): 0.25 µg/mL

Structure (SMILES): CO/C(C)=C1/NC(=O)[C@H]([C@@H](C)O)NC(=O)c2csc(n2)-c2cc(O)c(-c3nc(C(=O)N[C@@H](C)C(=O)N(CCO)CCO)cs3)nc2-c2csc(n2)[C@@H]2COC(=O)c3c4c5c(cccc5n3O)COC(=O)[C@@H](O[C@H]3C[C@](C)(O)[C@H](N(C)C)[C@H](C)O3)[C@@H](OC4)[C@H](NC(=O)c3csc1n3)c1nc(cs1)C(=O)N2
- MIC (Staphylococcus aureus): 0.25 µg/mL (≈ 0.164 µM)
- MIC (Enterococcus faecalis): 0.5 µg/mL (≈ 0.327 µM)
- solubility [8]: > 1200 µg/mL
- MIC (Streptococcus pneumoniae): 0.25 µg/mL (≈ 0.164 µM)
- ED50 (Mus musculus): > 10 mg/kg

Structure (SMILES): C=C(NC(=O)c1csc(-c2nc3c(cc2O)-c2nc(cs2)C(=O)N[C@@H]([C@@H](C)O)C(=O)N/C(=C(\C)OC)c2nc(cs2)C(=O)N[C@@H]2c4nc(cs4)C(=O)N[C@@H](COC(=O)c4c5c6c(cccc6n4O)COC(=O)[C@@H](O[C@H]4C[C@](C)(O)[C@H](N(C)C)[C@H](C)O4)[C@H]2OC5)c2nc-3cs2)n1)C(N)=O [MJ347-81F4 A]
- MIC (Staphylococcus aureus): 0.007 µg/mL (≈ 0.00487 µM)
- solubility [9]: 340 µg/mL (≈ 237 µM)
- MIC (Enterococcus faecalis): 0.03 µg/mL (≈ 0.0209 µM)
- MIC (Streptococcus pneumoniae): 0.002 µg/mL (≈ 0.00139 µM)
- ED50 (Mus musculus): 0.8 mg/kg

Structure (SMILES): CO/C(C)=C1/NC(=O)[C@H]([C@@H](C)O)NC(=O)c2csc(n2)-c2cc(O)c(-c3nc(C(=O)N[C@@H](C)C(=O)N(C)CCO)cs3)nc2-c2csc(n2)[C@@H]2COC(=O)c3c4c5c(cccc5n3O)COC(=O)[C@@H](O[C@H]3C[C@](C)(O)[C@H](N(C)C)[C@H](C)O3)[C@@H](OC4)[C@H](NC(=O)c3csc1n3)c1nc(cs1)C(=O)N2
- MIC (Staphylococcus aureus): 0.06 µg/mL (≈ 0.0401 µM)
- solubility [10]: 2300 µg/mL (≈ 1540 µM)
- solubility [9]: 2300 µg/mL (≈ 1540 µM)
- MIC (Enterococcus faecalis): 0.03 µg/mL (≈ 0.02 µM)
- MIC (Streptococcus pneumoniae): 0.003 µg/mL (≈ 0.002 µM)
- ED50 (Mus musculus): 1.65 mg/kg
